# Results published in US20250313575A1, “MACROCYCLES AS LRRK2 INHIBITORS, PHARMACEUTICAL COMPOSITIONS, AND USES THEREOF” (Merck Sharp & Dohme LLC, priority 2022, published 2025).
# Target: GST-tagged truncated human mutant G2019S LRRK2 (Homo sapiens (Human), UniProt Q5S007, G2019S)
# Test: LRRK2 G2019S Km ATP LanthaScreen assay
# Type: biochemical
# Settings: G2019S LRRK2, 134 μM ATP (Km ATP), LRRKtide substrate
# Description: Unless otherwise noted, all reactions are magnetically allowed to stir, diethyl ether used in the experiments described below is Fisher ACS certified material stabilized with BHT, and “concentrated” and/or “solvent removed under reduced pressure” means evaporating the solvent from a solution or mixture using a rotary evaporator or vacuum pump. Unless otherwise noted, flash chromatography is carried out on a Teledyne Isco (Lincoln, NE), Analogix (Burlington, WI), or Biotage (Stockholm, SWE) automated chromatography system using a commercially available cartridge as the column. Columns may be purchased from Teledyne Isco, Analogix, Biotage, Varian (Palo Alto, CA), or Supelco (Bellefonte, PA) and are usually filled with silica gel as the stationary phase. Reverse phase prep-HPLC conditions, where used, can be found at the end of each experimental section. Aqueous solutions were concentrated on a Genevac (Ipswich, ENG) or by freeze-drying/lyophilization. Unless otherwise noted, all LRRK2 pIC50 data presented in tables refers to the LRRK2 G2019S Km ATP LanthaScreen™ assay (Life Technologies Corp., Carlsbad, CA) that is described in the Biological Assay section.
# The LRRK2 kinase activity reported herein as IC50 values was determined with LanthaScreen™ technology from Life Technologies Corporation (Carlsbad, CA) using GST-tagged truncated human mutant G2019S LRRK2 in the presence of the fluorescein-labeled peptide substrate LRRKtide, also from Life Technologies. The data presented for the […] depending on the specific conditions and reagents used. Assays were performed in the presence of 134 μM ATP (Km ATP). Upon completion, the assay was stopped and phosphorylated substrate detected with a terbium (Tb)-labeled anti-pERM antibody (cat. no. PV4898). The compound dose response was prepared by diluting a 10 mM stock of compound to a maximum concentration of 9.99 μM in 100% dimethylsulfoxide followed by custom fold serial dilution in dimethylsulfoxide nine times. Twenty nanoliters of each dilution was spotted via a Labcyte Echo onto a 384-well black-sided plate (Corning 3575) followed by 15 μl of a 1.25 nM enzyme solution in 1× assay buffer (50 mM Tris pH 8.5, 10 mM MgCl2, 0.01% Brij-35, 1 mM EGTA, 2 mM dithiothreitol, 0.05 mM sodium orthovanadate). Following a 15-minute incubation at room temperature, the kinase reaction was started with the addition of 5 μl of 400 nM fluorescein-labeled LRRKtide peptide substrate and 134 μM ATP solution in 1× assay buffer. The reaction was allowed to progress at ambient temperature for 90 minutes. The reaction was then stopped by the addition of 20 μl of TR-FRET Dilution Buffer (Life Technologies, Carlsbad, CA) containing 2 nM Tb-labeled anti-phospho LRRKtide antibody and 10 mM EDTA (Life Technologies, Carlsbad, CA). After an incubation of 1 h at room temperature, the plate was read on an EnVision multimode plate reader (Perkin Elmer, Waltham, MA) with an excitation wavelength of 337 nm (Laser) and a reading emission at both 520 and 495 nm. Compound IC50s were interpolated from nonlinear regression best fits of the log of the final compound concentration, plotted as a function of the 520/495-nm emission ratio using Activity base. Abase uses a 4 parameter (4P) logistic fit based on the Levenberg-Marquardt algorithm.
# Sequence of GST-tagged truncated human mutant G2019S LRRK2 (Q5S007 970-2527 G2019S): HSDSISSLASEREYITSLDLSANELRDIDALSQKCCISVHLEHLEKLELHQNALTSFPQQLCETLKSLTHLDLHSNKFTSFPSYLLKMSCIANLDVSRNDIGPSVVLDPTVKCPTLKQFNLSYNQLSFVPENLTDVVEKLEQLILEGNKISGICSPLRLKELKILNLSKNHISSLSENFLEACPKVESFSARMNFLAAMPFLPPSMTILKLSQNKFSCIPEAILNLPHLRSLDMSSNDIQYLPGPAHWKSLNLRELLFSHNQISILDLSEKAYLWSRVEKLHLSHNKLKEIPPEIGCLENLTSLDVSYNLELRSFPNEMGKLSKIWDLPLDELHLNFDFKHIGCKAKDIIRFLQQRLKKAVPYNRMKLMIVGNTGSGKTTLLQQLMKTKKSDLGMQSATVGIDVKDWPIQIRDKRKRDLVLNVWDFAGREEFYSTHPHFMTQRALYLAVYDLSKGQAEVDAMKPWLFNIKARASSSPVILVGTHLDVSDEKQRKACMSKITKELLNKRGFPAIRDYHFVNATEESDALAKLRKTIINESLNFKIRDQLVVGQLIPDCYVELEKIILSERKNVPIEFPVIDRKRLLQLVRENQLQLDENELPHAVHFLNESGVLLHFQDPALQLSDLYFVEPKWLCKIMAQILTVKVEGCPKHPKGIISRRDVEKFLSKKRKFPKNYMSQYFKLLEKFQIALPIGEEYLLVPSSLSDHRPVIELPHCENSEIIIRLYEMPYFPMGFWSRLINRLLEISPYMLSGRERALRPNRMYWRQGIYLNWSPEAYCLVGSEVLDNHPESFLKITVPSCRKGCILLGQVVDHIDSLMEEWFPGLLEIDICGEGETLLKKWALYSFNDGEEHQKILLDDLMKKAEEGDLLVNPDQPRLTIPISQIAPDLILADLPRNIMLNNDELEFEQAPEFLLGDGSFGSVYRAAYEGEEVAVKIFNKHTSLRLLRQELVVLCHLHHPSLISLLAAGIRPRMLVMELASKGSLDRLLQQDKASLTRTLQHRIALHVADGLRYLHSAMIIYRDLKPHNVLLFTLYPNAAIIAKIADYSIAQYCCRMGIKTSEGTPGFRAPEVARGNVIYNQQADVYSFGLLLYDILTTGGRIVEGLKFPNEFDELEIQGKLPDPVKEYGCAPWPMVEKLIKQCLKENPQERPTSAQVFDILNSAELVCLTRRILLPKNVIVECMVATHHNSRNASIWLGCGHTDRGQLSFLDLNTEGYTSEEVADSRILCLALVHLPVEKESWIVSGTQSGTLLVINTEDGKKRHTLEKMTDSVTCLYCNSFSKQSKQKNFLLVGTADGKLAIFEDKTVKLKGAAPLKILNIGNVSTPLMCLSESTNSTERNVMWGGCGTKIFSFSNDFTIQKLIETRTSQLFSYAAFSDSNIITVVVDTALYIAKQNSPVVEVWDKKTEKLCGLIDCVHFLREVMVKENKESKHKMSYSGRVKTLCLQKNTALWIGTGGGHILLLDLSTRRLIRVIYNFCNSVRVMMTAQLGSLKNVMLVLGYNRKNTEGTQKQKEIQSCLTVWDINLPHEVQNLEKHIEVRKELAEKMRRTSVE
row,SMILES,LRRK2 pIC50
1,"Cc1nn(C)c2c1OCC[C@H](C)Nc1nc(ncc1C(F)(F)F)N2 (mixture of isomers) [Ex-2.1, (R)- and (S)-1,3,7-trimethyl-10-(trifluoromethyl)-1,5,6,7,8,14-hexahydro-9,13-(azeno)pyrazolo[4,3-b][1]oxa[4,6,10]triazacyclotridecine]",6.64
2,"Cc1nn(C)c2c1OCC[C@@H](C)Nc1nc(ncc1C(F)(F)F)N2 (mixture of isomers) [Ex-2.2, (R)- and (S)-1,3,7-trimethyl-10-(trifluoromethyl)-1,5,6,7,8,14-hexahydro-9,13-(azeno)pyrazolo[4,3-b][1]oxa[4,6,10]triazacyclotridecine]",5.45
3,"Cc1nn(C2CCC2)c2c1OC[C@H]1CN(C3COCC3F)C[C@@H]1Nc1nc(ncc1C(F)(F)F)N2 (mixture of isomers) [Ex-3.1, (10aS,13aR)- and (10aR,13aS)-3-cyclobutyl-12-(4-fluorotetrahydrofuran-3-yl)-1-methyl-8-(trifluoromethyl)-3,4,10a,11,12,13,13a,14-octahydro-10H-5,9-(azeno)pyrazolo[4,3-b]pyrrolo[3,4-k][1]oxa[4,6,10]triazacyclotridecine]",>10.09
4,"Cc1nn(C2CCC2)c2c1OCCC(C)Nc1nc(ncc1C(F)(F)F)N2 (single isomer, unassigned) [Ex-2.6, (R)- or (S)-1-cyclobutyl-3,7-dimethyl-10-(trifluoromethyl)-1,5,6,7,8,14-hexahydro-9,13-(azeno)pyrazolo[4,3-b][1]oxa[4,6,10]triazacyclotridecine]",9.17
5,"Cc1nn(C2CCC2)c2c1OCCC(C)Nc1nc(ncc1C(F)(F)F)N2 (single isomer, unassigned) [Ex-2.7, (R)- or (S)-1-cyclobutyl-3,7-dimethyl-10-(trifluoromethyl)-1,5,6,7,8,14-hexahydro-9,13-(azeno)pyrazolo[4,3-b][1]oxa[4,6,10]triazacyclotridecine]",7.21
6,"Cc1nn(C(C)C)c2c1OCCC(C)Nc1nc(ncc1C(F)(F)F)N2 (single isomer, unassigned) [Ex-2.8, (R)- or (S)-1-isopropyl-3,7-dimethyl-10-(trifluoromethyl)-1,5,6,7,8,14-hexahydro-9,13-(azeno)pyrazolo[4,3-b][1]oxa[4,6,10]triazacyclotridecine]",9.48
7,"Cc1nn(C(C)C)c2c1OCCC(C)Nc1nc(ncc1C(F)(F)F)N2 (single isomer, unassigned) [Ex-2.9, (R)- or (S)-1-isopropyl-3,7-dimethyl-10-(trifluoromethyl)-1,5,6,7,8,14-hexahydro-9,13-(azeno)pyrazolo[4,3-b][1]oxa[4,6,10]triazacyclotridecine]",6.31
8,"Cc1nn(C)c2c1OCC1(CC1)C(C)Nc1nc(ncc1C(F)(F)F)N2 (single isomer, unassigned) [Ex-2.14, (R)- or (S)-1′,3′,7′-trimethyl-10′-(trifluoromethyl)-1′,7′,8',14′-tetrahydro-5′H-spiro[cyclopropane-1,6′-[9,13](azeno)pyrazolo[4,3-b][1]oxa[4,6,10]triazacyclotridecine]]",6.73
9,"Cc1nn(C)c2c1OCC1(CC1)C(C)Nc1nc(ncc1C(F)(F)F)N2 (single isomer, unassigned) [Ex-2.15, (R)- or (S)-1′,3′,7′-trimethyl-10′-(trifluoromethyl)-1′,7′,8′,14′-tetrahydro-5′H-spiro[cyclopropane-1,6′-[9,13](azeno)pyrazolo[4,3-b][1]oxa[4,6,10]triazacyclotridecine]]",7.44
10,"Cc1nn(C)c2c1OCC1(CNc3nc(ncc3C(F)(F)F)N2)CC12CCOCC2 (single isomer, unassigned) [Ex-2.16, (R)- or (S)-1″,3″-dimethyl-10″- (trifluoromethyl)-1″,2,3,5,6,7″,8″,14″. octahydro-5″H-dispiro[pyran-4,1′-cyclopropane-2′,6″- [9,13](azeno)pyrazolo[4,3-b][1]oxa[4,6,10]triazacyclotridecine]]",7.93
11,"Cc1nn(C)c2c1OCC1(CNc3nc(ncc3C(F)(F)F)N2)CC12CCOCC2 (single isomer, unassigned) [Ex-2.17, (R)- or (S)-1″,3″-dimethyl-10″- (trifluoromethyl)-1″,2,3,5,6,7″,8″,14″- octahydro-5″H-dispiro[pyran-4,1′-cyclopropane-2′,6″- [9,13](azeno)pyrazolo[4,3-b][1]oxa[4,6,10]triazacyclotridecine]]",8.42
12,"CC1CCOc2c(C3CC3)nn(C)c2Nc2ncc(C(F)(F)F)c(n2)N1 (single isomer, unassigned) [Ex-2.18, (R)- or (S)-3-cyclopropyl-1,7-dimethyl-10-(trifluoromethyl)-1,5,6,7,8,14-hexahydro-9,13-(azeno)pyrazolo[4,3-b][1]oxa[4,6,10]triazacyclotridecine]",6.65
13,"CC1CCOc2c(C3CC3)nn(C)c2Nc2ncc(C(F)(F)F)c(n2)N1 (single isomer, unassigned) [Ex-2.19, (R)- or (S)-3-cyclopropyl-1,7-dimethyl-10-(trifluoromethyl)-1,5,6,7,8,14-hexahydro-9,13-(azeno)pyrazolo[4,3-b][1]oxa[4,6,10]triazacyclotridecine]",8.78
14,"Cc1nn(C2CCC2)c2c1OC[C@H]1CC[C@H]1Nc1nc(ncc1C(F)(F)F)N2 (single isomer, unassigned) [Ex-2.22, (10aR,12aS)- or (10aS,12aR)-3-cyclobutyl-1-methyl-8-(trifluoromethyl)-3,4,10,10a,11,12,12a,13-octahydro-5,9-(azeno)cyclobuta[k]pyrazolo[4,3-b][1]oxa[4,6,10]triazacyclotridecine]",5.76
15,"Cc1nn(C2CCC2)c2c1OC[C@H]1CC[C@H]1Nc1nc(ncc1C(F)(F)F)N2 (single isomer, unassigned) [Ex-2.23, (10aR,12aS)- or (10aS,12aR)-3-cyclobutyl-1-methyl-8-(trifluoromethyl)-3,4,10,10a,11,12,12a,13-octahydro-5,9-(azeno)cyclobuta[k]pyrazolo[4,3-b][1]oxa[4,6,10]triazacyclotridecine]",>10.09
16,"Cc1nn(C2CCC2)c2c1OC[C@H]1COC[C@@H]1Nc1nc(ncc1C(F)(F)F)N2 (single isomer, unassigned) [Ex-2.26, (10aS,13aS)- or (10aR,13aR)-3-cyclobutyl-1-methyl-8-(trifluoromethyl)-3,4,10a,11,13a, 14-hexahydro-10H,13H-5,9-(azeno)furo[3,4-k]pyrazolo[4,3-b][1]oxa[4,6,10]triazacyclotridecine]",6.77
17,"Cc1nn(C2CCC2)c2c1OC[C@@H]1COC[C@H]1Nc1nc(ncc1C(F)(F)F)N2 (single isomer, unassigned) [Ex-2.27, (3aR,15aR)- or (3aS,15aS)-11-cyclobutyl-13-methyl-6-(trifluoromethyl)-2,3,3a,4,10,11,15,15a-octahydro-5,9-(azeno)furo[3,2-k]pyrazolo[4,3-b][1]oxa[4,6,10]triazacyclotridecine]",6.47
18,"CC1CCOc2c(C(C)(C)C#N)nn(C3CCC3)c2Nc2ncc(C(F)(F)F)c(n2)N1 (single isomer, unassigned) [Ex-2.29, (R)- or (S)-butyl-7-methyl-10-(trifluoromethyl)-1,5,6,7,8,14-hexahydro-9,13-(azeno)pyrazolo[4,3-b][1]oxa[4,6,10]triazacyclotridecin-3-yl)-2-methylpropanenitrile]",5.70

# Same assay, conditions: G2019S LRRK2, 134 μM ATP (Km ATP), LRRKtide substrate; read-out: LRRK2 pIC50 (converted)
row,SMILES,IC50 [nM]
1,"Cc1nn(C)c2c1OC[C@H]1COC[C@H]1Nc1nc(ncc1C(F)(F)F)N2 (single isomer, unassigned) [Ex-2.25, (10aS,13aR)- or (10aR,13aS)-1,3-dimethyl-8-(trifluoromethyl)-3,4,10a,11,13a,14-hexahydro-10H,13H-5,9-(azeno)furo[3,4-k]pyrazolo[4,3-b][1]oxa[4,6,10]triazacyclotridecine]",28.2
